Assay results reported in patent US12590950B2, “Methods for predicting ER-mediated DNA damage” (UNIVERSITY OF MASSACHUSETTS, priority 2019, dated 2026).
Like-named read-outs stand apart in the source and are kept apart here.

Assays:
[1] = tested on: 76N-Tert-ESR1 cell line; assay: S9.6 immunostaining (R-loops) in 76N-Tert-ESR1 cells induced with doxycycline; conditions: 76N-Tert-ESR1 after induction of ERα with doxycycline, 5 μM
[2] = development and reproductive toxicity assays; cited from earlier work
[3] = tested on: normal human keratin cell lines; conditions: cited from earlier work
[4] = tested on: AREG and PGR; assay: RT-qPCR of endogenous ER target genes AREG and PGR in T47D and MCF-7 cell lines; format: cell-based, human; conditions: for induction of endogenous ER target genes AREG and PGR: 1 μM, T47D and MCF-7; for transcription by endogenous gene expression: 5 μM BP3, 1 μM PP
[5] = also printed as 200 μg/L; cited from earlier work
[6] = target: T1, ER (Homo sapiens, UniProt P03372); set-up: host or cells: MCF-7; conditions: MCF-7, 1 μM; cited from earlier work
T1 sequence (P03372 1-595): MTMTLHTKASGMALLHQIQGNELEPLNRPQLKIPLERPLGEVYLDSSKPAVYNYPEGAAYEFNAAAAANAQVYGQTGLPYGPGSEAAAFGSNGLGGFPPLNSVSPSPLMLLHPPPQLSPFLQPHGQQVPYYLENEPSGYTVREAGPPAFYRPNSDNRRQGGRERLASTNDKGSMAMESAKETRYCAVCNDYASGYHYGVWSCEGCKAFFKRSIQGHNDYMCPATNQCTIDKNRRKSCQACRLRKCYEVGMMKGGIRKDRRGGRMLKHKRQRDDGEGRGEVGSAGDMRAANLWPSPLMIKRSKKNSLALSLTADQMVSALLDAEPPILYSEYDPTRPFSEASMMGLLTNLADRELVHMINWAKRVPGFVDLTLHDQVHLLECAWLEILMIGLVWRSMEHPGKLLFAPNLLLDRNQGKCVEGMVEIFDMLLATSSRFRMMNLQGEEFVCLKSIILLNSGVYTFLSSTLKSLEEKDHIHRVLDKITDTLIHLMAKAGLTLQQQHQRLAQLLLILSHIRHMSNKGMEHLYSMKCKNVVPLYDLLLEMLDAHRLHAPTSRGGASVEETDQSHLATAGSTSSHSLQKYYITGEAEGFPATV

[7] = tested on: T47D cells; assay: S9.6 immunostaining (R-loops) in T47D cells; format: cell-based, human; conditions: 5 μM, vs vehicle-treated control
Description: Immunostaining: Cells were grown in clearing media for 48 h and plated on 20 mm coverslip in 12 well plates with a density of 2×10^5 cells/well. After 24 h of growth, cells were treated with 10 nM E2, 1 or 5 μM BP3, and 1 or 5 μM PP with or without 1 μM fulvestrant. γH2AX/ERα: Cells were fixed in ice-cold methanol (100%) for 10 mins and quenched with 0.1 M Glycine for 15 mins. Cells were washed with 1×PBS, blocked in 2% BSA/PBS with 0.1% Triton-X 100 for 1 hr at room temperature (RT), incubated overnight with γH2AX antibody (Cell Signaling #9718 S) or ERα antibody (Santa Cruz Biotechnology #sc-8002) at 4° C. and 1 hour with secondary antibody. S9.6: Cells were fixed in ice-cold 100% methanol for 10 min at −20° C., permeabilized in 100% acetone for 1 min at RT, blocked for 30 min in saline sodium citrate pH 7 (SSC, 4×), 3% BSA, 0.1% Triton-X and incubated with S9.6 (Kerafast #ENH001) 2 hr at RT followed by 1 h with secondary antibody. If indicated, slides were treated with RNase H (NEB #M0297L) for 4 hr at 37° C. prior to incubation with primary antibody. Stained cells were mounted with Vectashield mounting medium containing DAPI (Vector Laboratories #H-1200). […] Analysis of γH2AX and S9.6 intensity per nucleus or foci per nucleus was calculated using Nikon analysis software, where DAPI was used as a mask for the nucleus.

[8] = target: T1, ER; conditions: 10 μM; cited from earlier work
[9] = tested on: 76N-Tert-ESR1 cell line; conditions: human, 5 µM

Compound | nuclear S9.6 foci [1] | no-adverse-effect-level (NOAEL) dose [2] [µg/kg/day] | concentration inducing γH2AX foci [3] [µM] | concentration at which transcriptional response is observed [4] | induction of endogenous ER target genes AREG and PGR [4] | transcription by endogenous gene expression [4] | serum level following exposure in women [5] | ER agonism in transactivation and proliferation assays [6] | nuclear S9.6 foci (R-loops) [7] | induction of gene expression (ERE-CAT reporter) [8] [fold] | nuclear S9.6 foci [9]
COc1ccc(C(=O)c2ccccc2)c(O)c1 [BP3, 2-Hydroxy-4-methoxybenzophenone] | increased number of nuclear S9.6 foci significantly over vehicle-treated control | 3000 | 10 | greater than 5 μM | poor agonists | no significant increase in transcription | approximately 0.87 μM | weak agonist | significantly higher |  | 
CCCOC(=O)c1ccc(O)cc1 [PP, propyl parahydroxybenzoate] |  | 10000 |  | greater than 5 μM | poor agonists | no significant increase in transcription |  |  | significantly higher | 1.3 | increased number of nuclear S9.6 foci significantly over vehicle-treated control
